Experimental data reported in patent US7767685B2, “Adenosine A2B receptor antagonists” (King Pharmaceuticals Research and Development, Inc., priority 2006, dated 2010).

What was measured:
[1] = molecular target: T1, human A1 adenosine receptors (Homo sapiens, UniProt P30542); assay: Displacement of [3H]DPCPX binding at human A1 adenosine receptors expressed in CHO cells; conditions: [3H]DPCPX displacement, n = 3-6, geometric mean (95% confidence limits), read-out: Ki hA1
T1 construct: expressed in transfected cells; host or cells: CHO cells (membranes)
T1 sequence (P30542 1-326): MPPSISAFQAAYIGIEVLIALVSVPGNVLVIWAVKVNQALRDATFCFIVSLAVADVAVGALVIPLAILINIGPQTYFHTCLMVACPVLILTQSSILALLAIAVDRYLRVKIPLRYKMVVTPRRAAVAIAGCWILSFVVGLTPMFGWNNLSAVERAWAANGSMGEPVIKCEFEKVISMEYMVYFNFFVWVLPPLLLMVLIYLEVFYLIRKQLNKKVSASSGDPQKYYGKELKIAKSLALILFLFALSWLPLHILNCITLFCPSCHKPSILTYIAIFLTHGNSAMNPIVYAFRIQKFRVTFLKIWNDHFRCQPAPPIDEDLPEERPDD
Protocol: (§1) The human adenosine receptors have been transfected in CHO cells according with the method previously described by Klotz et al. (Naunyn-Schmied. Arch Pharm. 1998, 357: 1-9). Briefly, the cells are grown adherently and maintained in Dulbecco's Modified Eagles Medium with nutrient mixture F12 (DMEM/F12) without nucleosides, containing 10% fetal calf serum, penicillin (100 U/mL), streptomycin (100 μg/mL), L-glutamine (2 mM) and Geneticin (G418, 0.2 mg/ml) at 37° C. in 5% CO2/95% air. For membrane preparation the culture medium is removed and the cells are washed with phosphate-buffered saline and scraped off T75 flasks in ice-cold hypo tonic buffer (5 mM Tris HCl, 1 mM EDTA, pH 7.4). The cell suspension is homogenized with Polytron, the homogenate is spun for 10 min at 1000×g and the supernatant is then centrifuged for 30 min at 100,000×g. The membrane pellet is suspended in 50 mM Tris HCl buffer (pH 7.4) for A1 adenosine receptors, in 50 mM Tris HCl, 10 mM MgCl2 (pH 7.4) for A2A adenosine receptors, in 50 mM Tris HCl, 10 mM MgCl2, 1 mM EDTA (pH 7.4) for A2B and A3 adenosine receptors.
(§2) All new synthesized compounds have been tested to evaluate their affinity to human A1, A2A, A2B and A3 adenosine receptors. Displacement experiments of [^3H]-DPCPX to CHO cells transfected with the human recombinant A1 adenosine receptors are performed for 120 min at 25° C. incubating diluted membranes (50 μg of protein/assay) and at least 6-8 different concentrations of examined antagonists (Varani et al., Mol. Pharmacol., 2000, 57: 968-975). Non-specific binding is determined in the presence of 10 μM of CHA and this is always ≦10% of the total binding. Binding of [^3H]-ZM 241385 to CHO cells transfected with the human recombinant A2A adenosine receptors is performed using a suspension of membranes (50 μg of protein/assay) and at least 6-8 different concentrations of studied antagonists for an incubation time of 60 min at 4° C. Non-specific binding is determined in the presence of 1 μM ZM 241385 and is about 20% of total binding. Competition binding experiments of [^3H]-MRE 2029F20 to CHO cells transfected with the human recombinant A2B adenosine receptors are carried out incubating for 120 min at 4° C. diluted membranes (50 μg of protein/assay) and at least 6-8 different concentrations of examined compounds. Non-specific binding is defined as binding in the presence of 1 μM MRE 3029F20 and is about 25% of total binding. Competition binding experiments of [^3H]-MRE 3008F20 to CHO cells transfected with the human recombinant A3 adenosine receptors^5 are carried out incubating for 120 min at 4° C. diluted membranes (50 μg of protein/assay) and at least 6-8 different concentrations of examined ligands. Non-specific binding is defined as binding in the presence of 1 μM MRE 3008F20 and is about 25% of total binding. Bound and free radioactivity are separated by filtering the assay mixture through Whatman GF/B glass fiber filters using a Micro-Mate 196 cell harvester (Packard Instrument Co.). The filter bound radioactivity is counted on a Top Count (efficiency 57%) with Micro-Scint 20.
(§3) The protein concentration is determined according to a Bio-Rad method (Bradford, Anal Biochem. 1976, 72: 248-254) with bovine albumin as a standard reference. Inhibitory binding constant, Ki, values are calculated from those of IC50 according to Cheng & Prusoff equation (Biochem. Pharmacol 1973, 22: 3099-3108): Ki=IC50/(1+[C*]/KD*) where [C*] is the concentration of the radioligand and KD* its dissociation constant. A weighted non linear least-squares curve fitting program LIGAND (Munson et al., Anal. Biochem 1980, 107: 220-239) is used for computer analysis of inhibition experiments Data are expressed as geometric mean with 95% confidence limits in parentheses. Examples of Animal Models

[2] = molecular target: T2, human A2A adenosine receptors (Homo sapiens, UniProt P29274); assay: Displacement of [3H]ZM241385 binding at human A2A adenosine receptors expressed in CHO cells; conditions: [3H]ZM241385 displacement, n = 3-6, geometric mean (95% confidence limits), read-out: Ki hA2A
T2 construct: expressed in transfected cells; host or cells: CHO cells (membranes)
Protocol: as §1, §2, §3

[3] = molecular target: T3, human A2B adenosine receptors (Homo sapiens, UniProt P29275); assay: cAMP assay in CHO cells expressing human A2B adenosine receptors (antagonism of NECA-induced cAMP); type: cell-based; conditions: antagonism of NECA (100 nM)-induced cAMP, geometric mean (95% confidence limits), read-out: IC50 hA2B (cAMP assay)
T3 construct: expressed in transfected cells; host or cells: CHO cells (whole cells)
T3 sequence (P29275 1-332): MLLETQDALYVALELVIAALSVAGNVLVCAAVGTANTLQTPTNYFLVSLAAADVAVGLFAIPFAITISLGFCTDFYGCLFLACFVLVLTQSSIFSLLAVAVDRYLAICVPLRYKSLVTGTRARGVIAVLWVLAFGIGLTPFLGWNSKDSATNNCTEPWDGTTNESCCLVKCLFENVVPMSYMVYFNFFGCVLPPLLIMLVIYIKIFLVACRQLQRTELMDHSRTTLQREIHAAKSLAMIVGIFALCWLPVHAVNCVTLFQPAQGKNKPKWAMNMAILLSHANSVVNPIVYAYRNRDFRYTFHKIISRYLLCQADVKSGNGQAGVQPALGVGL
Protocol: Measurement of Cyclic AMP Levels in CHO Cells Transfected with Human A2B Adenosine Receptors
CHO cells transfected with human A2B adenosine receptors are washed with phosphate-buffered saline, diluted trypsine and centrifuged for 10 min at 200 g. The pellet containing the CHO cells (1×10^6 cells/assay) is suspended in 0.5 mL of incubation mixture: NaCl 150 mM, KCl 2.7 mM, NaH2PO4 0.37 mM, MgSO4 1 mM, CaCl2 1 mM, Hepes 5 mM, MgCl2 10 mM, glucose 5 mM, pH 7.4 at 37° C. Then 2.0 IU/mL adenosine deaminase and 0.5 mM 4-(3-butoxy-4-methoxybenzyl)-2-imidazolidinone (Ro 20-1724) as phosphodiesterase inhibitor are added and preincubated for 10 min a shaking bath at 37° C. The potency of antagonists studied are determined by antagonism of NECA (100 nM)-induced stimulation of cyclic AMP levels. The reaction is terminated by the addition of cold 6% thrichloroacetic acid (TCA). The TCA suspension is centrifuged at 2000 g for 10 min at 4° C. and the supernatant is extracted four times with water saturated diethyl ether. The final aqueous solution is tested for cyclic AMP levels by a competition protein binding assay. Samples of cyclic AMP standard ([…]) are added to each test tube containing the incubation buffer (trizma base 0.1 M, aminophylline 8.0 mM, 2-mercaptoethanol 6.0 mM (pH 7.4) and [^3H]cyclic AMP in a total volume of 0.5 mL. The binding protein previously prepared from beef adrenals, is added to the samples previously incubated at 4° C. for 150 min, and after the addition of charcoal are centrifuged at 2000 g for 10 min. The clear supernatant is counted with 4 mL of Atomlight liquid scintillator and counted in a Tri Carb Packard 2500 TR scintillation counter.
as §3

[4] = molecular target: T3, human A2B adenosine receptors; assay: Displacement of [3H]MRE2029F20 binding at human A2B adenosine receptors; conditions: [3H]MRE2029F20 displacement, human A2B receptors (footnote: HEK293 cells; method: CHO cells), n = 3-6; geometric mean (95% confidence limits); read-out: Ki hA2B
Protocol: as §1, with “The human adenosine receptors have been transfected in CHO cells according with the method previously described by Klotz et al.” left out
All new synthesized compounds have been tested to evaluate their affinity to human A1, A2A, A2B and A3 adenosine receptors. […] Pharmacol., 2000, 57: 968-975). Non-specific binding is determined in the presence of 10 μM of CHA and this is always ≦10% of the total binding. […] recombinant A2A adenosine receptors is performed using a suspension of membranes (50 μg of protein/assay) and at least 6-8 different concentrations of studied antagonists for an incubation time of 60 min at 4° C. Non-specific binding is determined in the presence of 1 μM ZM 241385 and is about 20% of total binding. […] Non-specific binding is defined as binding in the presence of 1 μM MRE 3029F20 and is about 25% of total binding. […] Non-specific binding is defined as binding in the presence of 1 μM MRE 3008F20 and is about 25% of total binding. Bound and free radioactivity are separated by filtering the assay mixture through Whatman GF/B glass fiber filters using a Micro-Mate 196 cell harvester (Packard Instrument Co.). The filter bound radioactivity is counted on a Top Count (efficiency 57%) with Micro-Scint 20.
as §3

T2 sequence (P29274 whole entry): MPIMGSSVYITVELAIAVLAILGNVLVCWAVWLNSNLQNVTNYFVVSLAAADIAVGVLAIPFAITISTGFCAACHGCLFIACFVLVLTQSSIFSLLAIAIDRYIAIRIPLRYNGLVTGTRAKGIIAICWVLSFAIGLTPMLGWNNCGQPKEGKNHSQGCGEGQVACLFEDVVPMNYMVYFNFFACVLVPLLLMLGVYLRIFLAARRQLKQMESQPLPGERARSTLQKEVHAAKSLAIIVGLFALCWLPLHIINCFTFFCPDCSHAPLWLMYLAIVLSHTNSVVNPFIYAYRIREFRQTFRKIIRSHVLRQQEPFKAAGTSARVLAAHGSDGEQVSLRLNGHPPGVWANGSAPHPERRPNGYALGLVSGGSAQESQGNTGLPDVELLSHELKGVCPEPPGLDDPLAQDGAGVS

## CCCn1c(=O)c2[nH]c(-c3cc(C)n(CC(=O)Nc4cccc5ccccc45)n3)nc2n(CCC)c1=O [Example 13, 2-[3-(2,6-Dioxo-1,3-dipropyl-2,3,6,7-tetrahydro-1H-purin-8-yl)-5-methyl-pyrazol-1-yl]-N-(naphthalen-1-yl)-acetamide]
other
  melting point: > 300 °C
[1]
  Ki: > 1000 nM
[2]
  Ki: > 1000 nM
[3]
  IC50: > 1000 nM

## CCCn1c(=O)c2[nH]c(-c3cc(C)n(CC(=O)Nc4ccc(Cl)cc4)n3)nc2n(CCC)c1=O [Example 4, 2-[3-(2,6-Dioxo-1,3-dipropyl-2,3,6,7-tetrahydro-1H-purin-8-yl)-5-methyl-pyrazol-1-yl]-N-(4-chlorophenyl)-acetamide]
other
  melting point: 261 to 265 °C
[4]
  Ki: 7 nM
[3]
  IC50: 43 nM

## CCCn1c(=O)c2[nH]c(-c3cc(CC)n(CC(=O)Nc4ccc(Cl)cc4)n3)nc2n(CCC)c1=O [Example 9]
other
  melting point: 256 to 257 °C
[1]
  Ki: > 1000 nM
[2]
  Ki: > 1000 nM
[3]
  IC50: > 1000 nM

## CCCn1c(=O)c2[nH]c(-c3cc(C)n(CC(=O)Nc4ccc(Br)cc4)n3)nc2n(CCC)c1=O [Example 3, 2-[3-(2,6-Dioxo-1,3-dipropyl-2,3,6,7-tetrahydro-1H-purin-8-yl)-5-methyl-pyrazol-1-yl]-N-(4-bromophenyl)acetamide]
other
  melting point: 270 to 273 °C
[4]
  Ki: 35 nM
[3]
  IC50: 156 nM

## CCCn1c(=O)c2[nH]c(-c3nn(CC(=O)Nc4ccc(Cl)cc4)c(C)c3I)nc2n(CCC)c1=O [Example 20, 2-[4-Iodo-3-(2,6-dioxo-1,3-dipropyl-2,3,6,7-tetrahydro-1H-purin-8-yl)-5-methyl-pyrazol-1-yl]-N-(4-chlorophenyl)-acetamide]
other
  melting point: 296 to 297 °C
[1]
  Ki: > 1000 nM
[2]
  Ki: > 1000 nM
[3]
  IC50: > 1000 nM

## CCCn1c(=O)c2[nH]c(-c3cc(C)n(CC(=O)Nc4ccc(N(C)C)cc4)n3)nc2n(CCC)c1=O [Example 11, 2-[3-(2,6-Dioxo-1,3-dipropyl-2,3,6,7-tetrahydro-1H-purin-8-yl)-5-methyl-pyrazol-1-yl]-N-(4-dimethylaminophenyl)-acetamide]
other
  melting point: > 300 °C
[1]
  Ki: > 1000 nM
[2]
  Ki: > 1000 nM
[3]
  IC50: > 1000 nM
